Measurements from patent US20100016435A1, “HYBRID MOLECULES HAVING MIXED VITAMIN D RECEPTOR AGONISM AND HISTONE DEACETYLASE INHIBITORY PROPERTIES” (McGill University, priority 2006, published 2010).

Assays:
α-tubulin = experiment: α-Tubulin acetylation in SCC4 cells, Western blot; type: cell-based, human; conditions: for levels of acetylated alpha-tubulin normalized for total alpha-tubulin: 3 15 nM, 36 or 39 10^−6 or 10^−7M, 6 h or 24 h, FIG. 6C
Excerpt: (§1) FIG. 4 is an illustration of the HDAC inhibitory activity of 3 in the SCC4 cell line. FIG. 4A is an illustration of a western blot of nuclear and cytoplasmic extracts of SCC4 cells treated with vehicle (−), 1, or 3 alone or in combination, as indicated. The 55 kDa band corresponds to the molecular weight of tubulin. FIG. 4B illustrates a western blot probed with an antibody directed against acetylated histone H4 (AcH4) showing the effects of the treatments described in A on acetylation of histone H4. FIG. 4C illustrates western blots of the effects of treatments described in A on levels of total alpha-tubulin (left) and acetylated alpha-tubulin (right).
FIG. 6 is a comparison of the HDAC inhibitory activities of 1, 3, 6, 36 or 39 as assessed by their effects on acetylation of alpha-tubulin. In A, SCC4 cells were incubated with vehicle or compound 1 (10^−6M), 3 (15 nM), 6 (10^−6M) and 36 (10^−6M), as indicated for 6 h and protein extracts were probed for total α-tubulin (Tub.) or acetylated α-tubulin (AcTub.) by Western blotting. Blots for acetylated alpha-tubulin and total alpha-tubulin are shown. In B, SCC4 cells were incubated with vehicle or compound 3 (15 nM), 6 (10^−6M) or 36 (10^−6M) as indicated for 6 h or 24 h and protein extracts were probed for acetylated α-tubulin (AcTub.) by Western blotting. In C, SCC4 cells were incubated with vehicle or compounds 3 (15 nM), 36 (10^−6 or 10^−7M) or 39 (10^−6 or 10^−7M) as indicated for 6 h or 24 h and protein extracts were probed for total α-tubulin (tub.) or acetylated α-tubulin (AcTub.) by Western blotting.
(§2) In preliminary experiments, TSA-inducible protein acetylation was analyzed in nuclear and cytoplasmic extracts of SCC4 cells treated for 6 h with 1, 3, or 1 and 3 and subsequently probed by Western blotting for protein acetylation using an anti-acetyllysine antibody. […] Effects of 3 on histone acetylation specifically, were confirmed by probing for acetylation of histone H4 (FIG. 4B). […] However, it was not clear whether this corresponded to enhanced expression or acetylation. […] This was confirmed by probing cytoplasmic fractions with an antibody that recognized α-tubulin (FIG. 4C). Calcitriol (1) had no effect on the acetylation of α-tubulin, and none of the treatments had any substantial effect on total α-tubulin expression (FIG. 4C).
SCC4 cells were incubated with vehicle or compound as indicated for 6 h and cytoplasmic protein extracts were probed by Western blotting using a specific antibody for acetylated α-tubulin.

human VDR = target: T1, human VDR (Homo sapiens, UniProt P11473); experiment: Reporter gene assay (VDRE-luciferase) in transiently transfected COS7 cells; type: cell-based
T1 construct: expressed in transfected cells; host or cells: COS7
T1 sequence (P11473 1-427): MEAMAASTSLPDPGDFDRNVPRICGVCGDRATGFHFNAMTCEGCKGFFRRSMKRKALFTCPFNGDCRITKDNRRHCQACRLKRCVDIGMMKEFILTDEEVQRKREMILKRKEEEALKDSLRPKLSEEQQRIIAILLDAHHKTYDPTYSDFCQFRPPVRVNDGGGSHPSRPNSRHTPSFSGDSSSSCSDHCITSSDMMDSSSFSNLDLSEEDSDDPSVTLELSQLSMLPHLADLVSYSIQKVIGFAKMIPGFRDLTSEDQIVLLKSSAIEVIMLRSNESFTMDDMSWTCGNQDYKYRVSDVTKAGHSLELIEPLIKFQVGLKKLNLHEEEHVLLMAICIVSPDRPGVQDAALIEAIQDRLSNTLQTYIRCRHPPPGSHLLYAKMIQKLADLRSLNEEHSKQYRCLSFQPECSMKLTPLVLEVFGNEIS
Method: FIG. 2 is an illustration of the vitamin D receptor agonist activity of 6 using a reporter gene assay in transiently transfected COS7 cells.
Hybrid molecule 6 was tested for calcitriol agonist activity using a reporter gene assay under standard conditions.^25,26 COS7 cells were transiently co-transfected with a plasmid expression vector for the human VDR, a plasmid vector expressing bacterial β-galactosidase from a constitutively active promoter (as an internal control for transfection efficiency), and a vector containing a luciferase reporter gene, under control of a previously described synthetic promoter composed of three high affinity VDREs (Vitamin D Response Elements) placed immediately upstream of a truncated promoter region from the herpes simplex virus thymidine kinase gene.^25 Cells were left overnight in the presence of DNA and transfection reagent (lipofectamine). The media were changed and cells were incubated in fresh media containing either vehicle (DMSO), 1 (100 nM), 3 (15 nM), 1 and 3 combined (100 nM/15 nM) or 6 (100 nM), and incubated a further 36 h.

[1] = tested on: MCF-7 breast cancer cells; experiment: Cell viability, trypan blue dye exclusion assay; type: cell-based; conditions: 24 h; 6 at 10^−7 or 10^−6M versus 1 at 10^−6M or 1 and 3; FIG. 9A
Method: (§3) FIG. 9 is an illustration of the effects of 1, 3, 1+3, 6 and 36 administered at the concentrations indicated on cell viability in two models. The viability of MCF-7 breast cancer cells was monitored after 24 h of incubation using a trypan blue dye exclusion assay (A).
(§4) The effect of 1, 3, 1+3, 6 and 36 on cell viability was tested in two models. The viability of MCF-7 breast cancer cells was monitored after 24 h of incubation using a trypan blue dye exclusion assay (FIG. 9A). […] The effects of 100 nM 1, 15 nM 3 (TSA), 1 and 3 combined (100 nM/15 nM) and 100 nM 6 (hybrid molecule) on cell viability were tested by screening for induction of markers of apoptotic cell death. Annexin V staining was screened by FACS analysis as in Tavera-Mendoza et al.^26 While all treatments induced modest increases in annexin V staining, apoptosis could be excluded as the major cause of cell death (FIG. 9B).

SCC4 cells [2] = experiment: Annexin V staining by FACS (apoptotic cell death); type: cell-based, human; conditions: after pretreatment with UV light
Method: as §3, §4

Du145 = experiment: Antiproliferative activity in Du145 prostate cancer cells; type: cell-based; conditions: Du145, data not shown
PC3 = experiment: Antiproliferative activity in PC3 prostate cancer cells; type: cell-based; conditions: PC3, data not shown
SCC4 cells [3] = experiment: Antiproliferative activity in SCC4 cells
Method: Tissue culture media was changed daily and fresh 1, 6 or vehicle were added.

SCC4 cells [4] = experiment: Acidic β-galactosidase activity (marker of autophagy), X-Gal staining and 620 nm measurement; type: cell-based, human; conditions: for acidic β-galactosidase staining (X-Gal, pH 4.0), cytochemical: qualitative, FIG. 10A
Excerpt: FIG. 10 is an illustration of the effects of 1, 3, 1+3 and 6 on the induction of acidic β-galactosidase activity, a marker of autophagy (A); FIG. 10 is an illustration of the effects 1, 3, 1+3 and 6 on the levels of β-galactosidase expression as obtained by measuring the indigo cleavage product of X-Gal at 620 nm (B).
Since it was observed that treatment with 1 could enhance cell death by autophagy (ref. 26), the effects of different treatments on the induction of acidic β-galactosidase activity, a marker of autophagy (FIG. 10A) was tested.

HDAC = experiment: Colorimetric HDAC assay with nuclear extracts of SCC4 cells; type: biochemical, human
Method: FIG. 5 is a comparison of the capability of 3 and 6 (20 nM and 200 nM) in blocking deacetylation of a substrate that absorbs at 405 nm in its deacetylated form.
Hybrid molecule 6 was tested for HDAC inhibitory activity using a colorimetric assay as illustrated in FIG. 5. Nuclear extracts of SCC4 cells were incubated with vehicle, 3 or 6 in the presence of substrate for 60 min at 37° C. Following incubation with developer (1 min.), the absorbance was measured at 405 nm.

SCC25 cells [5] = conditions: cited from earlier work
SCC4 cells [6] = experiment: Immunocytochemical and morphological analysis (mitotic catastrophe); type: cell-based, human
Excerpt: FIG. 12 is an illustration of the immunocytochemical analysis of the effects of 1, 3, or 1 and 3 combined on SCC4 cells (A). […] Both phenotypes are characteristics of mitotic catastrophe. The lower panels (B) show cytoplasmic bridges between SCC4 cells treated with 1 and 3, consistent with the formation of the tubulin bridges seen above in A.
Assembly into microtubules is regulated by acetylation. […] Previous studies have shown that microtubule stabilizing agents can induce mitotic catastrophe (ref. 30). […] The formation of intercellular microtubular structures was consistent with observations in the light microscope of numerous intercellular bridges in cells treated with both 1 and 3 (FIG. 12B, arrows), but not in other treatment groups (not shown).

SCC25 cells [7] = experiment: Antiproliferative activity in SCC25 cells; type: cell-based; conditions: 1 at 1 nM or 100 nM; 3 15 nM; combination 3 with 100 nM 1; FIG. 7B
Excerpt: FIG. 7 is an illustration of the antiproliferative activities of 1 and 3, individually or in combination, in SCC4 cells (A) or in SCC25 cells (B) at the concentrations indicated.

SCC4 cells [8] = experiment: Protein acetylation in nuclear and cytoplasmic extracts, Western blot with anti-acetyllysine antibody; type: cell-based, human; conditions: 6 h
Excerpt: as §1, §2

SCC4 cells [9] = conditions: cited from earlier work
SCC4 cells [10] = experiment: Cell cycle distribution by FACS analysis; type: cell-based, human; conditions: 100 nM 1, or 100 nM 1 and 15 nM 3; 72 h
Method: FIG. 11 is an illustration of the results obtained by fluorescence-activated cell sorting (FACS) analysis on the distribution of SCC4 cells in the cell cycle following treatment with vehicle (−), 1, or 1 and 3 together at the concentrations indicated.
The combined effects of 1 and 3 on the distribution of SCC4 cells in the cell cycle were assessed by FACS analysis (FIG. 11). Cells were treated with vehicle, 100 nM 1, or a combination of 100 nM 1 and 15 nM 3 for 72 h, as indicated.

histone H4 = experiment: Histone H4 acetylation, Western blot; type: cell-based, human; conditions: SCC4 cells, 6 h
Excerpt: as §1, §2

CC(/C=C/C(=O)NO)=C\[C@@H](C)[C@H]1CC[C@H]2/C(=C/C=C3C[C@@H](O)C[C@H](O)C3)CCC[C@]12C [compound 6, (2E,4E,6R)-6-[(1R,3R,7E,17β)-1,3-dihydroxy-9,10secoestra-5,7-dien-17-yl]-N-hydroxy-4-methylhepta-2,4-dienamide]
tubulin acetylation (α-tubulin; 1 μM, 6 h, FIG. 6A): marked tubulin acetylation
tubulin acetylation (α-tubulin; after 24 h, FIG. 6B): remains elevated
reporter gene activity (calcitriol agonist activity) (human VDR; COS7, 36 h, 1 100 nM, 3 15 nM, 6 100 nM, not normalized): essentially identical to that of 1
cell death (viability) [1]: markedly more cell death
annexin V staining versus 3, 1 or 1+3 (SCC4 cells [2]): substantially higher levels of apoptosis
antiproliferative activity (Du145): similar
antiproliferative activity (PC3): similar
inhibition of SCC4 proliferation (SCC4 cells [3]; 96 h, media and compound changed daily, FIG. 8A): greater efficacy than 1
levels of autophagy (SCC4 cells [4]; cytochemical and quantitative analysis): elevated levels of autophagy
increase in β-galactosidase expression versus 1 or 1+3 (SCC4 cells [4]; indigo cleavage product of X-Gal at 620 nm, FIG. 10B): ~30%
acidic β-galactosidase staining (X-Gal, pH 4.0), cytochemical (SCC4 cells [4]): higher percentage of cells that stained intensely
fold less potent than TSA (3) (HDAC; HDAC inhibition): about 10 fold
inhibiting HDAC activity, compared with 3 (HDAC; equimolar concentrations (20 nM), 60 min at 37° C.): less effective

C=C1/C(=C\C=C2/CCC[C@@]3(C)C2CCC3[C@H](C)CCCC(C)(C)O)C[C@@H](O)C[C@@H]1O (stereo partly drawn) [compound 1, 1α,25-Dihydroxyvitamin D3]
acetylation of α-tubulin (α-tubulin; cytoplasmic fractions, FIG. 4C): no effect
cell cycle arrest (SCC25 cells [5]): G0/G1 arrest
cell morphology (SCC4 cells [6]; FIG. 12): did not differ from control cells
induction of mitotic catastrophe (SCC4 cells [6]; SCC4 cells): not 1 or 3 alone
SCC25 proliferation / sensitivity (SCC25 cells [7]): relatively more sensitive
levels of a product of ~70 kDa (SCC4 cells [8]; cytoplasmic extracts): modestly but consistently enhanced
acetylation of low molecular weight nuclear proteins (SCC4 cells [8]; nuclear extracts): no effect
SCC4 proliferation (SCC4 cells [3]; 1 nM or 100 nM 1, alone or with 15 nM 3, FIG. 7A): modest effects
acidic β-galactosidase staining (X-Gal, pH 4.0), cytochemical (SCC4 cells [4]): generally enhanced
resistance of SCC4 to antiproliferative effects (SCC4 cells [9]): resistant
proportion of cells in G1 (SCC4 cells [10]): augmented
proportion of cells in G2/M (SCC4 cells [10]): augmented
proportion of cells in S phase (SCC4 cells [10]): substantially diminished
histone H4 acetylation (histone H4): little effect

C[C@H](CCCC(=O)NO)[C@H]1CC[C@H]2/C(=C/C=C3C[C@@H](O)C[C@H](O)C3)CCC[C@]12C [compound 36]
levels of acetylated alpha-tubulin normalized for total alpha-tubulin (α-tubulin): observed only in cells treated with 3
tubulin acetylation (α-tubulin; 10^−6 M, 6 or 24 h, FIG. 6B): no effect

C=C1/C(=C\C=C2/CCC[C@@]3(C)C2CCC3[C@H](C)/C=C/C=C/C(O)(CC)CC)C[C@@H](O)C[C@@H]1O (stereo partly shown) [compound 4, EB1089]
expression from the internal control plasmid (β-galactosidase) (human VDR; COS7 cells): modestly enhanced expression

C[C@H](CCCCC(=O)NO)[C@H]1CC[C@H]2/C(=C/C=C3C[C@@H](O)C[C@H](O)C3)CCC[C@]12C [compound 39]
levels of acetylated alpha-tubulin normalized for total alpha-tubulin (α-tubulin): observed only in cells treated with 3
